The values that follow come from patent US7671112B2, “Method of making fluoropolymer dispersion” (priority 2005, dated 2010).

The nature of the data set: Determination of bio-accumulation: urinary clearance pharmacokinetic study in rats. It is filed as in vivo, male Sprague Dawley rats. The note with it: oral gavage; for T½: elimination via urine, exponential least squares curve fitting of concentration in urine; for Compound-related Effects: clinical observation and gross necropsy 96 hours post-dose.
Where [1] appears, read: 73 micro Moles per kg body weight.
[2] abbreviates: 73 micro Moles per kg body weight, recovered in urine up to 96 h.
Setting [3] is: 73 micro Moles per kg, based on elimination of the major metabolite C3F7—O—CHFCOO−, no parent compound in urine.

Marks after values point to notes of the source that are not given here.

For `N.O=C(O)C(F)(F)C(F)(F)OC(F)(F)C(F)(F)F` [Compound 7, C2F5—O—CF2—CF2—COONH4], under setting [1], the “T½” value is reported as 10 h. Besides, the “% Recovery (96 h)” value under setting [2] is reported as 100%.
As for `N.O=C(O)C(F)(F)C(F)OC(F)(F)C(F)(F)C(F)(F)OC(F)(F)F` (centres unmarked) [Compound 11, CF3—O—CF2—CF2—CF2—O—CHF—CF2—COONH4], the “T½” value under setting [1] is given as 12 h. The “% Recovery (96 h)” value under setting [2] is 84%.
On the same counts, the results for `N.O=C(O)C(F)(F)OC(F)(F)OC(F)(F)OC(F)(F)F` [Compound 3, CF3—OCF2—OCF2—OCF2—COONH4] are 12 h and 100%.
`N.O=C(O)C(F)(F)OC(F)(F)C(F)(F)OC(F)(F)C(F)(F)F` [Compound 10, C2F5—O—CF2—CF2—O—CF2—COONH4]: under setting [1], the “T½” value worked out at 10 h. The “% Recovery (96 h)” value under setting [2] is recorded as 99%.
Consider `N.O=C(O)C(F)OC(F)(F)C(F)(F)C(F)(F)OC(F)(F)F` (centres unmarked) [Compound 12, CF3—O—CF2—CF2—CF2—O—CHF—COONH4], for which, under setting [1], the “T½” value was found to be 11 h. Under setting [2], the “% Recovery (96 h)” value was 95%.
On to `N.O=C(O)C(F)(F)C(F)(F)OC(F)(F)F` [Compound 6, CF3—O—CF2—CF2—COONH4], for which, under setting [1], the “T½” value is given as 11 h. Also, the “% Recovery (96 h)” value under setting [2] was 100%.
Turning to `N.O=C(O)C(F)(F)C(F)(F)C(F)(F)OC(F)C(F)(F)F` (centres unmarked) [Compound 15, CF3—CFH—O—(CF2)3—COONH4], the “T½” value under setting [1] is on record as 8 h. Besides, under setting [2], the “% Recovery (96 h)” value is 95%.
As for `N.O=C(O)C(F)(F)C(F)(F)OC(F)(F)C(F)(F)C(F)(F)F` [Compound 8, C3F7—O—CF2—CF2—COONH4], the “T½” value under setting [1] is on record as 12 h. In addition, under setting [2], the “% Recovery (96 h)” value was 82%.
On to `N.O=C(O)C(F)(F)C(F)(F)C(F)(F)C(F)(F)C(F)(F)OC(F)C(F)(F)F` (centres unmarked) [Compound 14, CF3—CFH—O—(CF2)5—COONH4], for which, under setting [1], the “Compound-related Effects” value was “Hepatomegaly” and the “T½” value is listed as 24 h. In addition, the “% Recovery (96 h)” value under setting [2] stood at 32%.
In the case of `N.O=C(O)COC(F)(F)C(F)OC(F)(F)C(F)(F)C(F)(F)F` (centres unmarked) [Compound 16, C3F7—O—CFH—CF2—O—CH2—COONH4], under setting [3], the “% Recovery (96 h)” value is listed as 65* % and the “T½ (h)” value is reported as 13* h.
Consider `N.O=C(O)C(F)(F)C(F)(F)C(F)(F)C(F)(F)C(F)(F)C(F)(F)C(F)(F)F` [Compound C-1, C7F15COONH4, reference compound], for which, under setting [1], the “Compound-related Effects” value is “Hepatomegaly” and the “T½” value is approximately 550 h. Besides, the “% Recovery (96 h)” value under setting [2] stood at 6%.
For the compound `N.O=C(O)C(F)(F)OC(F)(F)C(F)(F)C(F)(F)OC(F)(F)F` [Compound 1, CF3—O—(CF2)3—O—CF2—COONH4], under setting [2], the “% Recovery (96 h)” value is 73%.
Consider `N.O=C(O)C(F)(F)OC(F)(F)C(F)(F)C(F)(F)OC(F)(F)F` [Compound 4, CF3—(OCF2)3—OCF2—COONH4], for which the “% Recovery (96 h)” value under setting [2] was 50%.
`N.O=C(O)C(F)(F)OC(F)(F)C(F)(OC(F)(F)C(F)(F)C(F)(F)F)C(F)(F)F` (centres unmarked) [Compound C-3, C3F7—O—CF(CF3)—CF2—O—CF2—COONH4, reference compound]: under setting [1], the “Compound-related Effects” value is given as “Hepatomegaly” and the “T½” value was found to be 95 h. Moreover, under setting [2], the “% Recovery (96 h)” value is given as 5%.
With `N.O=C(O)C(F)(F)C(F)(F)OC(F)(F)C(F)(F)C(F)(F)C(F)(F)F` [Compound 9, C4F9—O—CF2—CF2—COONH4], under setting [1], the “Compound-related Effects” value is given as “Hepatomegaly” and the “T½” value came out at 31 h. The “% Recovery (96 h)” value under setting [2] is recorded as 42%.
As for `N.O=C(O)C(F)(F)OC(F)(F)C(F)(F)C(F)(F)F` [Compound 5, C3F7—O—CF2—COONH4], under setting [1], the “T½” value is 11 h. Besides, the “% Recovery (96 h)” value under setting [2] was found to be 97%.
Regarding `N.O=C(O)C(F)(F)OC(F)(F)OC(F)(F)F` [Compound 2, CF3—OCF2—O—CF2—COONH4], the “T½” value under setting [1] stood at 12 h. Also, the “% Recovery (96 h)” value under setting [2] turned out to be 96%.
For `N.O=C(O)C(F)(F)C(F)OC(F)(F)C(F)(F)C(F)(F)F` (centres unmarked) [Compound 13, C3F7—O—CFH—CF2COONH4], the “T½” value under setting [1] came to 11 h. Moreover, under setting [2], the “% Recovery (96 h)” value was determined as 94%.
